In patent US8137705B2 (priority 2005, dated 2012):

Experiments:
Assay type in all cases: cell-based
E. coli O157:H7 = E. coli O157:H7 counts in water containing rumen content or feces treated with chemicals or chemical combinations; conditions: for E. coli O157:H7 counts (log10 cfu/ml) at min 0 / E. coli O157:H7 counts (log10 cfu/ml) at min 2 / E. coli O157:H7 counts (log10 cfu/ml) at min 5 / E. coli O157:H7 counts (log10 cfu/ml) at min 10 / E. coli O157:H7 counts (log10 cfu/ml) at min 20 / E. coli O157:H7 counts (log10 cfu/ml) at min 30 / E. coli O157:H7 counts (log10 cfu/ml) at min 60 / E. coli O157:H7 counts (log10 cfu/ml) at min 120: 21° C.; for E. coli O157:H7 counts (log10 cfu/ml) at min 0: 0 min; for E. coli O157:H7 counts (log10 cfu/ml) at min 2: 2 min; for E. coli O157:H7 counts (log10 cfu/ml) at min 5: 5 min; for E. coli O157:H7 counts (log10 cfu/ml) at min 10: 10 min; for E. coli O157:H7 counts (log10 cfu/ml) at min 20: 20 min; for E. coli O157:H7 counts (log10 cfu/ml) at min 30: 30 min; for E. coli O157:H7 counts (log10 cfu/ml) at min 60: 60 min; for E. coli O157:H7 counts (log10 cfu/ml) at min 120: 120 min
E. coli O26:H11 = E. coli O26:H11 counts in water containing rumen content or feces treated with chemical combinations; conditions: 21° C.; for E. coli O26:H11 counts (log10 cfu/ml) at min: 0: 0 min; for E. coli O26:H11 counts (log10 cfu/ml) at min: 2: 2 min; for E. coli O26:H11 counts (log10 cfu/ml) at min: 5: 5 min; for E. coli O26:H11 counts (log10 cfu/ml) at min: 10: 10 min; for E. coli O26:H11 counts (log10 cfu/ml) at min: 20: 20 min; for E. coli O26:H11 counts (log10 cfu/ml) at min: 30: 30 min; for E. coli O26:H11 counts (log10 cfu/ml) at min: 60: 60 min; for E. coli O26:H11 counts (log10 cfu/ml) at min: 120: 120 min
E. coli O111:NM = E. coli O111:NM counts in water containing rumen content or feces treated with chemical combinations; conditions: 21° C.; for E. coli O111:NM counts (log10 cfu/ml) at min 0: 0 min; for E. coli O111:NM counts (log10 cfu/ml) at min 2: 2 min; for E. coli O111:NM counts (log10 cfu/ml) at min 5: 5 min; for E. coli O111:NM counts (log10 cfu/ml) at min 10: 10 min; for E. coli O111:NM counts (log10 cfu/ml) at min 20: 20 min; for E. coli O111:NM counts (log10 cfu/ml) at min 30: 30 min; for E. coli O111:NM counts (log10 cfu/ml) at min 60: 60 min; for E. coli O111:NM counts (log10 cfu/ml) at min 120: 120 min
[1] = water containing feces (20:1, v/w)
[2] = water containing rumen content (10:1, v/w)

## O=C([O-])c1ccccc1.[Na+] [0.1% sodium benzoate, sodium benzoate]
E. coli O157:H7; [1]
  E. coli O157:H7 counts (log10 cfu/ml) at min 0: 5.7 log10 cfu/ml
  E. coli O157:H7 counts (log10 cfu/ml) at min 2: 5.6 log10 cfu/ml
  E. coli O157:H7 counts (log10 cfu/ml) at min 5: 5.4 log10 cfu/ml
  E. coli O157:H7 counts (log10 cfu/ml) at min 10: 5.6 log10 cfu/ml
  E. coli O157:H7 counts (log10 cfu/ml) at min 20: 5.5 log10 cfu/ml
  E. coli O157:H7 counts (log10 cfu/ml) at min 30: 5.4 log10 cfu/ml
  E. coli O157:H7 counts (log10 cfu/ml) at min 60: 5.5 log10 cfu/ml
  E. coli O157:H7 counts (log10 cfu/ml) at min 120: 5.6 log10 cfu/ml
E. coli O157:H7; [2]
  E. coli O157:H7 counts (log10 cfu/ml) at min 0: 5.9 log10 cfu/ml
  E. coli O157:H7 counts (log10 cfu/ml) at min 2: 6.0 log10 cfu/ml
  E. coli O157:H7 counts (log10 cfu/ml) at min 5: 6.0 log10 cfu/ml
  E. coli O157:H7 counts (log10 cfu/ml) at min 10: 5.9 log10 cfu/ml
  E. coli O157:H7 counts (log10 cfu/ml) at min 20: 6.0 log10 cfu/ml
  E. coli O157:H7 counts (log10 cfu/ml) at min 30: 5.9 log10 cfu/ml
  E. coli O157:H7 counts (log10 cfu/ml) at min 60: 6.0 log10 cfu/ml
  E. coli O157:H7 counts (log10 cfu/ml) at min 120: 6.1 log10 cfu/ml
E. coli O26:H11; [1]
  E. coli O26:H11 counts (log10 cfu/ml) at min: 0: 5.5 log10 cfu/ml
  E. coli O26:H11 counts (log10 cfu/ml) at min: 2: 5.4 log10 cfu/ml
  E. coli O26:H11 counts (log10 cfu/ml) at min: 5: 5.5 log10 cfu/ml
  E. coli O26:H11 counts (log10 cfu/ml) at min: 10: 5.4 log10 cfu/ml
  E. coli O26:H11 counts (log10 cfu/ml) at min: 20: 5.5 log10 cfu/ml
  E. coli O26:H11 counts (log10 cfu/ml) at min: 30: 5.4 log10 cfu/ml
  E. coli O26:H11 counts (log10 cfu/ml) at min: 60: 5.5 log10 cfu/ml
  E. coli O26:H11 counts (log10 cfu/ml) at min: 120: 5.4 log10 cfu/ml
E. coli O26:H11; [2]
  E. coli O26:H11 counts (log10 cfu/ml) at min: 0: 5.6 log10 cfu/ml
  E. coli O26:H11 counts (log10 cfu/ml) at min: 2: 5.5 log10 cfu/ml
  E. coli O26:H11 counts (log10 cfu/ml) at min: 5: 5.4 log10 cfu/ml
  E. coli O26:H11 counts (log10 cfu/ml) at min: 10: 5.5 log10 cfu/ml
  E. coli O26:H11 counts (log10 cfu/ml) at min: 20: 5.5 log10 cfu/ml
  E. coli O26:H11 counts (log10 cfu/ml) at min: 30: 5.5 log10 cfu/ml
  E. coli O26:H11 counts (log10 cfu/ml) at min: 60: 5.4 log10 cfu/ml
  E. coli O26:H11 counts (log10 cfu/ml) at min: 120: 5.5 log10 cfu/ml
E. coli O111:NM; [1]
  E. coli O111:NM counts (log10 cfu/ml) at min 0: 5.6 log10 cfu/ml
  E. coli O111:NM counts (log10 cfu/ml) at min 2: 5.6 log10 cfu/ml
  E. coli O111:NM counts (log10 cfu/ml) at min 5: 5.6 log10 cfu/ml
  E. coli O111:NM counts (log10 cfu/ml) at min 10: 5.7 log10 cfu/ml
  E. coli O111:NM counts (log10 cfu/ml) at min 20: 5.6 log10 cfu/ml
  E. coli O111:NM counts (log10 cfu/ml) at min 30: 5.5 log10 cfu/ml
  E. coli O111:NM counts (log10 cfu/ml) at min 60: 5.5 log10 cfu/ml
  E. coli O111:NM counts (log10 cfu/ml) at min 120: 5.6 log10 cfu/ml
E. coli O111:NM; [2]
  E. coli O111:NM counts (log10 cfu/ml) at min 0: 5.6 log10 cfu/ml
  E. coli O111:NM counts (log10 cfu/ml) at min 2: 5.6 log10 cfu/ml
  E. coli O111:NM counts (log10 cfu/ml) at min 5: 5.5 log10 cfu/ml
  E. coli O111:NM counts (log10 cfu/ml) at min 10: 5.6 log10 cfu/ml
  E. coli O111:NM counts (log10 cfu/ml) at min 20: 5.6 log10 cfu/ml
  E. coli O111:NM counts (log10 cfu/ml) at min 30: 5.5 log10 cfu/ml
  E. coli O111:NM counts (log10 cfu/ml) at min 60: 5.4 log10 cfu/ml
  E. coli O111:NM counts (log10 cfu/ml) at min 120: 5.5 log10 cfu/ml

## CCCC(=O)O [0.5% butyric acid, butyric acid]
E. coli O157:H7; butyric acid >2%, caprylic acid >0.1%, data not shown
  inactivation of E. coli O157:H7 within 20 minutes: substantial inactivation
E. coli O157:H7; [1]
  E. coli O157:H7 counts (log10 cfu/ml) at min 0: 6.0 log10 cfu/ml
  E. coli O157:H7 counts (log10 cfu/ml) at min 2: 6.0 log10 cfu/ml
  E. coli O157:H7 counts (log10 cfu/ml) at min 5: 6.0 log10 cfu/ml
  E. coli O157:H7 counts (log10 cfu/ml) at min 10: 6.1 log10 cfu/ml
  E. coli O157:H7 counts (log10 cfu/ml) at min 20: 6.1 log10 cfu/ml
  E. coli O157:H7 counts (log10 cfu/ml) at min 30: 6.1 log10 cfu/ml
  E. coli O157:H7 counts (log10 cfu/ml) at min 60: 6.0 log10 cfu/ml
  E. coli O157:H7 counts (log10 cfu/ml) at min 120: 6.0 log10 cfu/ml
E. coli O157:H7; [2]
  E. coli O157:H7 counts (log10 cfu/ml) at min 0: 5.9 log10 cfu/ml
  E. coli O157:H7 counts (log10 cfu/ml) at min 2: 5.9 log10 cfu/ml
  E. coli O157:H7 counts (log10 cfu/ml) at min 5: 5.9 log10 cfu/ml
  E. coli O157:H7 counts (log10 cfu/ml) at min 10: 5.8 log10 cfu/ml
  E. coli O157:H7 counts (log10 cfu/ml) at min 20: 5.7 log10 cfu/ml
  E. coli O157:H7 counts (log10 cfu/ml) at min 30: 5.8 log10 cfu/ml
  E. coli O157:H7 counts (log10 cfu/ml) at min 60: 5.6 log10 cfu/ml
  E. coli O157:H7 counts (log10 cfu/ml) at min 120: 5.7 log10 cfu/ml
E. coli O26:H11; [1]
  E. coli O26:H11 counts (log10 cfu/ml) at min: 0: 5.5 log10 cfu/ml
  E. coli O26:H11 counts (log10 cfu/ml) at min: 2: 5.4 log10 cfu/ml
  E. coli O26:H11 counts (log10 cfu/ml) at min: 5: 5.4 log10 cfu/ml
  E. coli O26:H11 counts (log10 cfu/ml) at min: 10: 5.4 log10 cfu/ml
  E. coli O26:H11 counts (log10 cfu/ml) at min: 20: 5.5 log10 cfu/ml
  E. coli O26:H11 counts (log10 cfu/ml) at min: 30: 5.2 log10 cfu/ml
  E. coli O26:H11 counts (log10 cfu/ml) at min: 60: 5.2 log10 cfu/ml
  E. coli O26:H11 counts (log10 cfu/ml) at min: 120: 5.0 log10 cfu/ml
E. coli O26:H11; [2]
  E. coli O26:H11 counts (log10 cfu/ml) at min: 0: 5.4 log10 cfu/ml
  E. coli O26:H11 counts (log10 cfu/ml) at min: 2: 5.4 log10 cfu/ml
  E. coli O26:H11 counts (log10 cfu/ml) at min: 5: 5.3 log10 cfu/ml
  E. coli O26:H11 counts (log10 cfu/ml) at min: 10: 5.4 log10 cfu/ml
  E. coli O26:H11 counts (log10 cfu/ml) at min: 20: 5.4 log10 cfu/ml
  E. coli O26:H11 counts (log10 cfu/ml) at min: 30: 5.2 log10 cfu/ml
  E. coli O26:H11 counts (log10 cfu/ml) at min: 60: 5.4 log10 cfu/ml
  E. coli O26:H11 counts (log10 cfu/ml) at min: 120: 5.1 log10 cfu/ml
E. coli O111:NM; [1]
  E. coli O111:NM counts (log10 cfu/ml) at min 0: 5.6 log10 cfu/ml
  E. coli O111:NM counts (log10 cfu/ml) at min 2: 5.6 log10 cfu/ml
  E. coli O111:NM counts (log10 cfu/ml) at min 5: 5.5 log10 cfu/ml
  E. coli O111:NM counts (log10 cfu/ml) at min 10: 5.6 log10 cfu/ml
  E. coli O111:NM counts (log10 cfu/ml) at min 20: 5.6 log10 cfu/ml
  E. coli O111:NM counts (log10 cfu/ml) at min 30: 5.6 log10 cfu/ml
  E. coli O111:NM counts (log10 cfu/ml) at min 60: 5.6 log10 cfu/ml
  E. coli O111:NM counts (log10 cfu/ml) at min 120: 5.6 log10 cfu/ml
E. coli O111:NM; [2]
  E. coli O111:NM counts (log10 cfu/ml) at min 0: 5.5 log10 cfu/ml
  E. coli O111:NM counts (log10 cfu/ml) at min 2: 5.5 log10 cfu/ml
  E. coli O111:NM counts (log10 cfu/ml) at min 5: 5.5 log10 cfu/ml
  E. coli O111:NM counts (log10 cfu/ml) at min 10: 5.6 log10 cfu/ml
  E. coli O111:NM counts (log10 cfu/ml) at min 20: 5.6 log10 cfu/ml
  E. coli O111:NM counts (log10 cfu/ml) at min 30: 5.4 log10 cfu/ml
  E. coli O111:NM counts (log10 cfu/ml) at min 60: 5.5 log10 cfu/ml
  E. coli O111:NM counts (log10 cfu/ml) at min 120: 5.6 log10 cfu/ml
